Assay results from patent publication US11944112B2, “Stabilized steviol glycoside malonic acid esters” (CARGILL, INCORPORATED, priority 2020, dated 2024).
Where a SMILES comes first, the peptide text is derived from it.

Test: Acid-stability at pH 1.7 (percent recovered by UHPLC/UV)
Type: physicochemical
Conditions: water pH 1.7, room temperature (about 22° C.)
Description: Acid-stability measurements were taken for samples of aspartame, SGMAs, and a combination of SGMAs with the stabilizer. […] Acid-stability was measured in water having a pH of 1.7. The concentration of the aspartame or the SGMAs in the samples during the testing was 0.1 to 10 wt %. The samples were stored at room temperature (nominally about 22° C.) and samples were taken periodically. The concentration of the aspartame, SGMAs, MCQAs and DCQAs, as the case may be, was measured by UHPLC/UV then divided by the original concentration to determine a percent recovered.
FIG. 1 illustrates the results for three samples—one had 3000 ppm (0.3 wt %) aspartame, another had 5 wt % SGMAs, and the third had 5 wt % each of the SGMAs and the stabilizer. Aspartame has limited solubility, but 3000 ppm is on par with concentrations of throw syrups used to make some diet carbonated soft drinks that have about 500 ppm of aspartame. […] After 14 days of storage, the concentration of aspartame was about 78% of the initial concentration; stated another way, about 22% of the aspartame was degraded. In the same 14 days, the concentration of SGMAs in the SGMA-only sample was about 67% of the initial concentration, a degradation of about 33%. That means the SGMA degradation was 50% higher than the aspartame degradation (33% vs 22%).

COC(=O)[C@H](Cc1ccccc1)NC(=O)[C@@H](N)CC(=O)O [aspartame] (H-Asp-Phe-OMe)
degradation after 14 days of storage: about 22% | concentration as percent of the initial concentration (percent recovered) after 14 days of storage (3000 ppm aspartame, 5 wt % SGMAs, or 5 wt % each SGMAs and stabilizer): about 78%
